In PubChem BioAssay (NCI):
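Cultured in 96-well plates, cells were exposed to test compound for 48 hours across five concentrations. Definition used: TGI = concentration required for complete inhibition of growth.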

Assays:
Test in all cases: growth of human tumour cells (NCI), 48 h
SW-620 colon = system: SW-620 colon
DU-145 prostate = system: DU-145 prostate
U251 CNS = system: U251 CNS
RXF 393 renal = system: RXF 393 renal
SK-OV-3 ovarian = system: SK-OV-3 ovarian
COLO 205 colon = system: COLO 205 colon
786-0 renal = system: 786-0 renal
BT-549 breast = system: BT-549 breast
OVCAR-8 ovarian = system: OVCAR-8 ovarian
ACHN renal = system: ACHN renal
M14 melanoma = system: M14 melanoma
OVCAR-3 ovarian = system: OVCAR-3 ovarian
SNB-19 CNS = system: SNB-19 CNS
SN12C renal = system: SN12C renal
A498 renal = system: A498 renal
IGROV1 ovarian = system: IGROV1 ovarian
EKVX NSCLC = system: EKVX NSCLC
OVCAR-4 ovarian = system: OVCAR-4 ovarian
MALME-3M melanoma = system: MALME-3M melanoma
HCT-116 colon = system: HCT-116 colon
MDA-MB-435 = system: MDA-MB-435
MCF7 breast = system: MCF7 breast
SR leukemia = system: SR leukemia
NCI/ADR-RES ovarian = system: NCI/ADR-RES ovarian
HCC-2998 colon = system: HCC-2998 colon
LOX IMVI melanoma = system: LOX IMVI melanoma
NCI-H23 lung = system: NCI-H23 lung
A549 NSCLC = system: A549 NSCLC
SF-268 CNS = system: SF-268 CNS
NCI-H226 lung = system: NCI-H226 lung
SK-MEL-2 melanoma = system: SK-MEL-2 melanoma
T-47D breast = system: T-47D breast
CAKI-1 renal = system: CAKI-1 renal
K-562 leukemia = system: K-562 leukemia
MDA-N = system: MDA-N
MOLT-4 leukemia = system: MOLT-4 leukemia
HL-60(TB) leukemia = system: HL-60(TB) leukemia
PC-3 prostate = system: PC-3 prostate
UACC-62 melanoma = system: UACC-62 melanoma
SK-MEL-28 melanoma = system: SK-MEL-28 melanoma
HOP-62 NSCLC = system: HOP-62 NSCLC
NCI-H460 lung = system: NCI-H460 lung
HT29 colon = system: HT29 colon
HCT-15 colon = system: HCT-15 colon
RPMI-8226 leukemia = system: RPMI-8226 leukemia
SNB-75 CNS = system: SNB-75 CNS
MDA-MB-231 breast = system: MDA-MB-231 breast
SF-295 CNS = system: SF-295 CNS
UO-31 renal = system: UO-31 renal
KM12 colon = system: KM12 colon
OVCAR-5 ovarian = system: OVCAR-5 ovarian
NCI-H522 lung = system: NCI-H522 lung
CCRF-CEM leukemia = system: CCRF-CEM leukemia
HS 578T breast = system: HS 578T breast
SK-MEL-5 melanoma = system: SK-MEL-5 melanoma
UACC-257 melanoma = system: UACC-257 melanoma
TK-10 renal = system: TK-10 renal
SF-539 CNS = system: SF-539 CNS
HOP-92 NSCLC = system: HOP-92 NSCLC

Measured: TGI

CCOC(=O)c1ccc(C(=O)/C(C#N)=C2\CCCN2)n1C
not listed: UACC-257 melanoma | TK-10 renal | SF-539 CNS | HOP-92 NSCLC
> 100 µM: all other assays above

CCOC(=O)c1cc(C)n(CN(CCO)Cn2nc(C(=O)OCC)cc2C)n1
91.2 µM: MDA-MB-231 breast
78.3 µM: K-562 leukemia
48.1 µM: HCT-15 colon
44 µM: M14 melanoma
62.9 µM: HOP-62 NSCLC
55.6 µM: ACHN renal
70.1 µM: OVCAR-3 ovarian | LOX IMVI melanoma
42.5 µM: NCI/ADR-RES ovarian
54.1 µM: OVCAR-5 ovarian
43.9 µM: RXF 393 renal
59.9 µM: OVCAR-8 ovarian
36.8 µM: SK-MEL-2 melanoma
96.1 µM: MALME-3M melanoma
42.2 µM: CCRF-CEM leukemia
49.7 µM: 786-0 renal
52.1 µM: NCI-H522 lung
53.2 µM: UO-31 renal
27.9 µM: HCC-2998 colon
53.8 µM: NCI-H23 lung
71.5 µM: DU-145 prostate
79.2 µM: SN12C renal
40.3 µM: RPMI-8226 leukemia
37.7 µM: HCT-116 colon
73.7 µM: MCF7 breast
33.6 µM: SF-539 CNS
68.7 µM: BT-549 breast
72.3 µM: T-47D breast
72.7 µM: SR leukemia
47.4 µM: HT29 colon
41.9 µM: COLO 205 colon
38.2 µM: UACC-62 melanoma
not listed: NCI-H226 lung | SNB-75 CNS
> 100 µM: all other assays above
